Reference: ChEMBL document CHEMBL3352601, “Discovery of potent iminoheterocycle BACE1 inhibitors” (Bioorg Med Chem Lett, 2014)
The source made the active and inactive calls. The calls are words filed in the database; no cut-off is given here.

Legend:
Cathepsin D = Cathepsin D (Homo sapiens, UniProt P07339)
Description: Inhibition of cathepsin-D (unknown origin)

Beta-secretase 1 [1] = target: T1, Beta-secretase 1 (Homo sapiens, UniProt P56817)
Description: Inhibition of purified human BACE1 by FRET assay

Beta-secretase 1 [2] = target: T1, Beta-secretase 1; assay: Inhibition of BACE1-mediated amyloid beta 40 production in HEK293-APPswe/lon cells by whole cell assay; format: cell-based
Mus musculus = species: Mus musculus; assay: Reduction of cortical amyloid beta 40 level in CRND8-APP mouse model; format: functional, organism-based
Rattus norvegicus = assay: Reduction of amyloid beta 40 level in rat plasma at 30 mg/kg, po relative to control; format: functional; set-up: scale not given: the % may be the effect or the level left
in vivo = settings: rat, plasma, sc, 10 mg/kg
Beta-secretase 1 [3] = target: T1, Beta-secretase 1; assay: Inhibition of BACE1-mediated amyloid beta 40 production in HEK293-APPswe/lon cells by whole cell assay in presence of P-gp inhibitor; format: cell-based

Cathepsin D, sequence (P07339 65-162 limits assumed): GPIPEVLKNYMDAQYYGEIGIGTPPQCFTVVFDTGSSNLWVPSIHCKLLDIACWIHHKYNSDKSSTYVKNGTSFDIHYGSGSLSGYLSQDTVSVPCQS
Cathepsin D, sequence (P07339 169-412 limits assumed): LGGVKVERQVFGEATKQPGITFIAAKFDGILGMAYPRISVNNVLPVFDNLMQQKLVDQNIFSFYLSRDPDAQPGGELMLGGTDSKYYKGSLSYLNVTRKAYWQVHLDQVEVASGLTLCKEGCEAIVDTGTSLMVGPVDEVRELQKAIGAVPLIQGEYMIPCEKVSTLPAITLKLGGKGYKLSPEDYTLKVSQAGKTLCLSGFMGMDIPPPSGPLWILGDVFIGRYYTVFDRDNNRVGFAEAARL
T1 sequence (P56817 whole entry): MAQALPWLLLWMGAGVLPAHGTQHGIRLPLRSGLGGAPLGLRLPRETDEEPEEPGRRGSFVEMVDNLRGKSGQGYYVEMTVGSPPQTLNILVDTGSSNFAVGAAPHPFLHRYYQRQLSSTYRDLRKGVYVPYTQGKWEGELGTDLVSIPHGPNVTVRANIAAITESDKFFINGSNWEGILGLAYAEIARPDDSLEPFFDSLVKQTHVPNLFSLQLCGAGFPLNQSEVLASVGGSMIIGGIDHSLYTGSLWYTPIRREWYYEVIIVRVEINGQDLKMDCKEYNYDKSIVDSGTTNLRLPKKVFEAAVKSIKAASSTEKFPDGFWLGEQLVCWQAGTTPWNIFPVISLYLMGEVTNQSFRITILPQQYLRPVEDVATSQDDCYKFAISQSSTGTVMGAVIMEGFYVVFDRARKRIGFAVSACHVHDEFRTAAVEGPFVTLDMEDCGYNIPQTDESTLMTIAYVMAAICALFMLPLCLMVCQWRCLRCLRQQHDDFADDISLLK

SMILES	Ki (Cathepsin D)	Ki (Beta-secretase 1 [1])	other results
CCCCC(=O)N1CCC[C@@H](C[C@@]2(CCC3CCCCC3)NC(=N)N(C)C2=O)C1	28 µM	17 µM	–
CN1C(=N)N[C@](CCC2CCCCC2)(C[C@@H]2CCCNC2)C1=O	> 100 µM	66 µM	–
CN1C(=N)N[C@](CCC2CCCCC2)(C[C@H]2CCCNC2)C1=O	> 100 µM	8.5 µM	–
CN1C(=N)N[C@](CCC2CCCCC2)(C[C@H]2CCC[C@@H](NC(=O)Nc3ccc(C#N)cc3)C2)C1=O	6.9 µM	0.003 µM	–
CCCCC(=O)N1CC[C@@H](C[C@@]2(CCC3CCCCC3)NC(=N)N(C)C2=O)C1	–	17.4 µM	–
CCCCC(=O)N1CC[C@H](C[C@@]2(CCC3CCCCC3)NC(=N)N(C)C2=O)C1	23 µM	0.49 µM	–
COc1ccc(NC(=O)N[C@@H]2CCC[C@H](C[C@@]3(CCC4CCCCC4)NC(=N)N(C)C3=O)C2)cc1	2.5 µM	0.01 µM	–
CN1C(=N)N[C@](CCC2CCCCC2)(C[C@H]2CCC[C@@H](NCC3CC3)C2)C1=O	53.3 µM	0.48 µM	–
CN1C(=N)N[C@](CCC2CCCCC2)(C[C@H]2CCC[C@@H](NC(=O)Nc3cnc4ccccc4n3)C2)C1=O	7.5 µM	0.014 µM	–
CN1C(=N)N[C@](CCC2CCCCC2)(C[C@H]2CCC[C@@H](NC(=O)Nc3ccc4ccccc4n3)C2)C1=O	25 µM	0.022 µM	EC50 (Beta-secretase 1 [2]): 0.258 µM; Activity (Mus musculus): inactive; Activity (Rattus norvegicus): 55%; AUC(0-t) at 6 h (in vivo): 0.306 µM·h; EC50 (Beta-secretase 1 [3]): 0.11 µM
CN1C(=N)N[C@](CCC2CCCCC2)(C[C@H]2CCC[C@@H](NC(=O)c3ccccc3)C2)C1=O	3.8 µM	0.13 µM	–
CCCCC(=O)N1CCC[C@H](C[C@@]2(CCC3CCCCC3)NC(=N)N(C)C2=O)C1	44 µM	3.2 µM	–

More lines, main results first:

Ki (Cathepsin D)	Ki (Beta-secretase 1 [1])	SMILES	other results
> 100 µM	29 µM	CN1C(=N)N[C@](CCC2CCCCC2)(C[C@H]2CCCN(C(=O)OC(C)(C)C)C2)C1=O	–
> 100 µM	7.6 µM	CCCCCN1CCC[C@H](C[C@@]2(CCC3CCCCC3)NC(=N)N(C)C2=O)C1	–
> 100 µM	0.01 µM	CN1C(=N)N[C@](CCC2CCCCC2)(C[C@H]2CCC[C@@H](NC(=O)Nc3ccc(Cl)cc3)C2)C1=O	–
2.8 µM	8.5 µM	CCCNC(=O)N1CCC[C@H](C[C@@]2(CCC3CCCCC3)NC(=N)N(C)C2=O)C1	–
63.5 µM	0.23 µM	CN1C(=N)N[C@](CCC2CCCCC2)(C[C@H]2CCC[C@@H](NC3CCCCC3)C2)C1=O	–
25.5 µM	6.3 µM	CCCCS(=O)(=O)N1CCC[C@H](C[C@@]2(CCC3CCCCC3)NC(=N)N(C)C2=O)C1	–
6 µM	0.138 µM	CN1C(=N)N[C@](CCC2CCCCC2)(C[C@H]2CCC[C@@H](NC(=O)NC3CCCCC3)C2)C1=O	–
33 µM	41 µM	CN1C(=N)N[C@](CCC2CCCCC2)(C[C@@H]2CCCN(C(=O)OC(C)(C)C)C2)C1=O	–
3.5 µM	0.585 µM	CN1C(=N)N[C@](CCC2CCCCC2)(C[C@H]2CCC[C@@H](NC(=O)Cc3ccccc3)C2)C1=O	–
8.5 µM	–	CN1C(=N)N[C@](CCC2CCCCC2)(C[C@@H]2CCCN(C(=O)CC3CCCC3)C2)C1=O	–
8.5 µM	0.301 µM	CN1C(=N)N[C@](CCC2CCCCC2)(C[C@H]2CCC[C@@H](NC(=O)Nc3ccccc3Cl)C2)C1=O	–
0.87 µM	–	CN1C(=N)N[C@](CCC2CCCCC2)(C[C@H]2CCCN(C(=O)CC3CCCC3)C2)C1=O	–
2.4 µM	0.276 µM	COc1ccccc1NC(=O)N[C@@H]1CCC[C@H](C[C@@]2(CCC3CCCCC3)NC(=N)N(C)C2=O)C1	–
